Assays:
GPR158 R173A mutant = molecular target: T1, GPR158 R173A mutant (Homo sapiens, UniProt Q5T848, R173A); experiment: Radioligand binding assay on GPR158 mutant R173A
T1 sequence (Q5T848 24-1215 R173A): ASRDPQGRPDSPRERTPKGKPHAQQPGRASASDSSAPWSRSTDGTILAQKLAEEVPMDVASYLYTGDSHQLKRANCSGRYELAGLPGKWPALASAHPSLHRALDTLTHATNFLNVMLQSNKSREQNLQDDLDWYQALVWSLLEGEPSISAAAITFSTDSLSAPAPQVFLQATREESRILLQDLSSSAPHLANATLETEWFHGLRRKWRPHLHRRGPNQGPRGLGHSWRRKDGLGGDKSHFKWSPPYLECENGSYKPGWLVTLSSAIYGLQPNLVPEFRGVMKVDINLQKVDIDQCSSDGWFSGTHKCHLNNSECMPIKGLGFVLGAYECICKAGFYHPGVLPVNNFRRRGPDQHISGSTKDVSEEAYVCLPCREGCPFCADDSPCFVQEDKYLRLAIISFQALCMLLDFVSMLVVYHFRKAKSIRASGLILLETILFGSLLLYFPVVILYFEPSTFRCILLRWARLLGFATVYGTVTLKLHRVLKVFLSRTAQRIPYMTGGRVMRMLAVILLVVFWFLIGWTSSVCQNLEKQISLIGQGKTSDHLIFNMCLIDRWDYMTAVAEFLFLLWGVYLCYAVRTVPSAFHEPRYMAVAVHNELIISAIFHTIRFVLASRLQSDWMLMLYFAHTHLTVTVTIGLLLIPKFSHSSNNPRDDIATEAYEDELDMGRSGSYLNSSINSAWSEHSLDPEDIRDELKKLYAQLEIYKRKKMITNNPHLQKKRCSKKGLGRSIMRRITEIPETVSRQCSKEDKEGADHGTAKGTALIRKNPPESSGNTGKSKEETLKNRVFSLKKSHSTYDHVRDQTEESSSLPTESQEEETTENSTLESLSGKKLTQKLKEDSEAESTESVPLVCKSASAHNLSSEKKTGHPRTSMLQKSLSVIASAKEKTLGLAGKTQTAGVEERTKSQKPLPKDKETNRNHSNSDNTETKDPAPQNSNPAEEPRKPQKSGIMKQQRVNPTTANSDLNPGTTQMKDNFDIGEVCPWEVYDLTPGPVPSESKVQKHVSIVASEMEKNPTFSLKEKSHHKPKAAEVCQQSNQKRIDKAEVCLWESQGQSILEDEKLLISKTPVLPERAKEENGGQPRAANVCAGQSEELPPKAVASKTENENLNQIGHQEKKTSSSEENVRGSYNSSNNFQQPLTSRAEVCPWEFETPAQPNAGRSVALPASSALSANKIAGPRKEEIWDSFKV
Text: (§1) FIGS. 11A-11G. Probing Cache domain of GPR158 as a ligand binding site A) Computational docking of glycine into putative ligand binding pocket on GPR158 Cache domain. Glycine and directly interacting residues are shown as sticks. Hydrogen bonds and van der Waals interactions are shown as dotted lines. B) Diagram showing interactions in the docked model of glycine against GPR158 Cache domain. Hydrogen bonds are shown as dashed lines, van der Waals interactions are shown as intersecting semicircles, and the secondary structural context of Ser266 and Tyr269 is shown as an arc. Dagger indicates a residue implicated in glycine binding in 11A. C) Radioligand binding assay of ^3H-glycine in cells expressing GPR158 mutants. Data shown mean±s.e.m. of 3 independent experiments, *p<0.05, ns=p>0.05 one-way ANOVA. D) Functional evaluation of GPR158 mutants in GAP BRET assay. Error bars are mean±s.e.m. of 3 independent experiments in triplicate. *p<0.05, **p<0.01, ***p<0.001, ****p<0.0001, ns=p>0.05, two-way ANOVA Columns with no fill (Ctrl), columns with angled-line fill (Glycine) E) Quantification of glycine inhibitory effect on kGAP normalized to the effect seen with WT receptor. […]
Whole cell binding was performed using cDNA of GPR158-venus or each GPR158-venus mutant or empty pcDNA3.1+ for ctrl cells. […] Finally radioactivity was measured using the liquid scintillation analyzer Tri-Carb 4910 TR.

[1] = test system: GPR158 R173A, E271A, and Y269A mutants; experiment: GAP BRET assay on GPR158 mutants defective in glycine binding; type: cell-based, human
Text: as §1, with “C) Radioligand binding assay of ^3H-glycine in cells expressing GPR158 mutants. Data shown mean±s.e.m. of 3 independent experiments, *p<0.05, ns=p>0.05 one-way ANOVA. D) Functional evaluation of GPR158 mutants in GAP BRET assay.” left out
Cellular measurements of BRET between Venus-Gβ1γ2 and masGRK3ct-Nluc were performed to examine GAP activity of RGS protein in living cells (described in detail in Masuho et al., 2015 (40)). […] The BRET signal was determined by calculating the ratio of the light emitted by the Venus-Gβ1γ2 (535 nm with a 30 nm band path width) over the light emitted by the masGRK3ct-Nluc (475 nm with a 30 nm band path width). […]

NCC(=O)O [^3H-glycine, [^3H]-glycine]
[^3H]-glycine binding (GPR158 R173A mutant): near complete loss

NCC(=O)O [glycine]
glycine inhibition of GAP activity of RGS7/Gβ5 [1]: lost an ability to inhibit the GAP-activity of RGS7/Gβ5
